Key:
[1] = tested on: Human immunodeficiency virus 1; assay: Antiviral activity against HIV-1 harboring E138K mutant infected in human MT4 cells assessed as reduction in virus induced cytotoxicity incubated for 5 to 7 days by MTT assay; assay type: functional, organism-based; settings: Human immunodeficiency virus 1, MT4
[2] = tested on: Human immunodeficiency virus 1; assay: Antiviral activity against HIV-1 harboring F227L/V106A double mutant infected in human MT4 cells assessed as reduction in virus induced cytotoxicity incubated for 5 to 7 days by MTT assay; assay type: functional, organism-based; settings: Human immunodeficiency virus 1, MT4
[3] = tested on: Human immunodeficiency virus 1; assay: Antiviral activity against HIV-1 harboring K103N mutant infected in human MT4 cells assessed as reduction in virus induced cytotoxicity incubated for 5 to 7 days by MTT assay; assay type: functional, organism-based; settings: Human immunodeficiency virus 1, MT4
[4] = tested on: Human immunodeficiency virus 1; assay: Antiviral activity against HIV-1 harboring L100I mutant infected in human MT4 cells assessed as reduction in virus induced cytotoxicity incubated for 5 to 7 days by MTT assay; assay type: functional, organism-based; settings: Human immunodeficiency virus 1, MT4
[5] = tested on: Human immunodeficiency virus 1; assay: Antiviral activity against HIV-1 harboring Y188L mutant infected in human MT4 cells assessed as reduction in virus induced cytotoxicity incubated for 5 to 7 days by MTT assay; assay type: functional, organism-based; settings: Human immunodeficiency virus 1, MT4
[6] = tested on: Human immunodeficiency virus 1; assay: Antiviral activity against wild type HIV-1 3B infected in human MT4 cells assessed as reduction in virus induced cytotoxicity incubated for 5 to 7 days by MTT assay; assay type: functional, organism-based; settings: Human immunodeficiency virus 1, 3B
[7] = tested on: Human immunodeficiency virus 1; assay: Antiviral activity against HIV-1 harboring Y181C mutant infected in human MT4 cells assessed as reduction in virus induced cytotoxicity incubated for 5 to 7 days by MTT assay; assay type: functional, organism-based; settings: Human immunodeficiency virus 1, MT4
[8] = tested on: Human immunodeficiency virus 1; assay: Antiviral activity against HIV-1 RES056 infected in human MT4 cells assessed as reduction in virus induced cytotoxicity incubated for 5 to 7 days by MTT assay; assay type: functional, organism-based; settings: Human immunodeficiency virus 1, RES056, MT4
[9] = Cytotoxicity against human MT4 cells assessed as reduction in cell viability incubated for 5 to 7 days by MTT assay; assay type: toxicity, cell-based; settings: time 5-7 day
[10] = Selectivity index, ratio of CC50 for cytotoxicity against human MT4 cells to EC50 for antiviral activity against wildtype HIV-1 3B infected in human MT4 cells; assay type: toxicity, cell-based; settings: read-out: Ratio CC50/EC50
[11] = biological target: Human immunodeficiency virus type 1 reverse transcriptase (Human immunodeficiency virus 1, UniProt Q72547); assay: Inhibition of wild type HIV-1 reverse transcriptase assessed as reduction of biotin-dUTP incorporation into […] using ABTS as substrate incubated for 1 hrs by ELISA analysis
[12] = tested on: Human immunodeficiency virus 1; assay: Potency index, ratio of Nevirapine EC50 to test compound EC50 for antiviral activity against wild type HIV-1 3B infected in human MT4 cells assessed as reduction in virus induced cytotoxicity incubated for 5 to 7 days by MTT assay; assay type: functional; settings: time 5-7 day
[13] = tested on: Human immunodeficiency virus 1; assay: Potency index, ratio of 5-chloro-3-(m-tolylsulfonyl)-1H-indole-2-carboxamide EC50 to test compound EC50 for antiviral activity against HIV-1 harboring E138K mutant infected in human MT4 cells assessed as reduction in virus induced cytotoxicity incubated for 5 to 7 days by MTT assay; assay type: functional; settings: time 5-7 day
[14] = tested on: Human immunodeficiency virus 1; assay: Potency index, ratio of Zidovudine EC50 to test compound EC50 for antiviral activity against wild type HIV-1 3B infected in human MT4 cells assessed as reduction in virus induced cytotoxicity incubated for 5 to 7 days by MTT assay; assay type: functional; settings: time 5-7 day

Row | Structure (SMILES) | EC50 [1] [µM] | EC50 [2] [µM] | EC50 [3] [µM] | EC50 [4] [µM] | EC50 [5] [µM] | EC50 [6] [µM] | EC50 [7] [µM] | EC50 [8] [µM] | CC50 [9] [µM] | selectivity ratio [10] | IC50 [11] [µM] | Ratio EC50 [12] | Ratio EC50 [13] | Ratio EC50 [14]
1 | Cc1cc(C)cc(S(=O)(=O)c2c(C(=O)NC3CC4(CCN(S(C)(=O)=O)CC4)C3)[nH]c3ccc(Cl)cc23)c1 | 0.1 | 1.29 | 0.44 | 0.25 | > 191 | 0.021 | 0.97 | > 222 | > 222 | > 10300 |  |  |  | 
2 | Cc1cc(C)cc(S(=O)(=O)c2c(C(=O)NC3CC4(C3)CN(S(C)(=O)=O)C4)[nH]c3ccc(Cl)cc23)c1 | 0.11 | 0.41 | 0.21 | 0.12 | 1.76 | 0.011 | 0.47 | ≥ 12.8 | > 233 | > 20900 | 0.12 |  |  | 
3 | Cc1cc(C)cc(S(=O)(=O)c2c(C(=O)NC3CC4(CCN(CC(N)=O)CC4)C3)[nH]c3ccc(Cl)cc23)c1 | 0.2 | 0.48 | 0.15 | 0.18 | 1.29 | 0.0098 | 0.85 | > 3.61 | 3.61 | 367 |  |  |  | 
4 | Cc1cc(C)cc(S(=O)(=O)c2c(C(=O)NC3CC4(CCN(C(=O)OC(C)(C)C)CC4)C3)[nH]c3ccc(Cl)cc23)c1 |  |  |  |  |  | 0.19 |  |  | 133 | 685 |  |  |  | 
5 | Cc1cc(C)cc(S(=O)(=O)c2c(C(=O)NC3CC4(C3)CN(Cc3n[nH]c(=O)n3C)C4)[nH]c3ccc(Cl)cc23)c1 | 0.04 | 0.23 | 0.056 | 0.047 | 0.56 | 0.0053 | 0.25 | 7.45 | 65.6 | 12400 | 0.17 | 30 | 23 | 4
6 | Cc1cc(C)cc(S(=O)(=O)c2c(C(=O)NC3CC4(C3)CN(C(=O)OC(C)(C)C)C4)[nH]c3ccc(Cl)cc23)c1 |  |  |  |  |  | 0.07 |  |  | > 224 | > 3220 |  |  |  | 
7 | Cc1cc(C)cc(S(=O)(=O)c2c(C(=O)NC3CC4(CCNCC4)C3)[nH]c3ccc(Cl)cc23)c1 |  |  |  |  |  | 0.049 |  |  | 24.2 | 493 |  |  |  | 
8 | Cc1cc(C)cc(S(=O)(=O)c2c(C(=O)NC3CC4(CCN(Cc5n[nH]c(=O)n5C)C4)C3)[nH]c3ccc(Cl)cc23)c1 (centres undefined) | 0.045 | 0.27 | 0.14 | 0.058 | 1.46 | 0.0099 | 0.21 | 133 | > 214 | > 21600 |  | 16 |  | 2
9 | Cc1cc(C)cc(S(=O)(=O)c2c(C(=O)NC3CC4(CCN(S(C)(=O)=O)C4)C3)[nH]c3ccc(Cl)cc23)c1 (centres undefined) | 0.069 | 0.6 | 0.33 | 0.11 | 1.93 | 0.012 | 0.33 | > 205 | 205 | 16500 |  |  |  | 
10 | Cc1cc(C)cc(S(=O)(=O)c2c(C(=O)NC3CC4(CCN(CC(N)=O)C4)C3)[nH]c3ccc(Cl)cc23)c1 (centres undefined) | 0.072 | 0.42 | 0.19 | 0.13 | 1.42 | 0.011 | 0.42 | > 3.7 | 3.7 | 328 | 0.13 |  |  | 
11 | Cc1cc(C)cc(S(=O)(=O)c2c(C(=O)NC3CC4(C3)CN(CC(N)=O)C4)[nH]c3ccc(Cl)cc23)c1 | 0.074 | 0.5 | 0.14 | 0.1 | 1.28 | 0.011 | 0.39 | ≥ 5.77 | 6.08 | 526 |  |  |  | 
12 | Cc1cc(C)cc(S(=O)(=O)c2c(C(=O)NC3CC4(CNC4)C3)[nH]c3ccc(Cl)cc23)c1 |  |  |  |  |  | 0.041 |  |  | 28.6 | 676 |  |  |  | 
13 | Cc1cc(C)cc(S(=O)(=O)c2c(C(=O)NC3CC4(CCN(Cc5n[nH]c(=O)n5C)CC4)C3)[nH]c3ccc(Cl)cc23)c1 | 0.17 | 1.42 | 0.57 | 0.27 | 8.07 | 0.022 | 0.94 | > 178 | 178 | 8350 |  |  |  | 
14 | Cc1cc(C)cc(S(=O)(=O)c2c(C(=O)NC3CC4(CCN(C(=O)OC(C)(C)C)C4)C3)[nH]c3ccc(Cl)cc23)c1 (centres undefined) |  |  |  |  |  | 0.12 |  |  | 171 | 1470 |  |  |  | 
15 | Cc1cc(C)cc(S(=O)(=O)c2c(C(=O)NC3CC4(CCNC4)C3)[nH]c3ccc(Cl)cc23)c1 (centres undefined) |  |  |  |  |  | 0.038 |  |  | 25.2 | 664 |  |  |  | 
16 | Cc1cc(C)cc(S(=O)(=O)c2c(C(N)=O)[nH]c3ccc(Cl)cc23)c1 | 0.9 | 0.047 | 0.017 | 0.015 | 1.1 | 0.0041 | 0.039 | 1.8 |  | 2160 | 0.015 |  |  | 
17 | O=C1Nc2ccc(Cl)cc2[C@@](C#CC2CC2)(C(F)(F)F)O1 [EFAVIRENZ] | […] |  | 0.097 |  | 0.089 | 0.0032 |  | 0.105 | > 6.33 |  |  |  |  | 
18 | Cc1cc(C#N)cc(C)c1Oc1nc(Nc2ccc(C#N)cc2)nc(N)c1Br [ETRAVIRINE] |  | 0.016 |  | 0.009 | 0.015 |  |  | 0.035 | > 4.59 | > 1570 |  |  |  | 
19 | Cc1ccnc2c1NC(=O)c1cccnc1N2C1CC1 [NEVIRAPINE] | 0.158 | 3.54 | 3.55 |  | 4.42 |  | 3.79 | 2.22 | > 15 |  |  |  |  | 
20 | Cc1cn([C@H]2C[C@H](N=[N+]=[N-])[C@@H](CO)O2)c(=O)[nH]c1=O [ZIDOVUDINE] | 0.007 | 0.004 |  | 0.005 | 0.004 | 0.021 | 0.005 | 0.01 | > 7.48 | > 352 |  |  |  | 

Source: ChEMBL document CHEMBL5137034, “Chemical space exploration around indolylarylsulfone scaffold led to a novel class of highly active HIV-1 NNRTIs with spiro structural features” (Eur J Med Chem, 2022)
